Reference: US11629201B2, “PSMA-binding agents and uses thereof” (ITM Isotope Technologies Munich SE, priority 2017, dated 2023)
Where “and” joins values, the source holds several entries; their conditions need not be identical. Equal values may be shown once.

How the values were obtained:
[1] = test system: mouse plasma proteins; assay: Ultrafiltration assay, binding to mouse plasma proteins; format: in vitro ADME
Procedure: Filter Assay. […] In addition, the radioligands were diluted in PBS (buffer solution without proteins) as a control experiment. Aliquots of the solutions were loaded onto an ultrafiltration device and centrifuged. The filtered activity was measured with a γ-counter and used for calculating the plasma protein-bound activity (retained on the filter membrane) as the percentage of total added activity. […] Statistical analysis (one-way ANOVA with Bonferroni's multiple comparison post-test) was performed using GraphPad Prism software, version 7. A p-value of <0.05 was considered statistically significant.

[2] = test system: PC-3 PIP/flu tumor-bearing mice; assay: Biodistribution studies in PC-3 PIP/flu tumor-bearing mice; conditions: for Tumor-to-blood / Tumor-to-kidney / Tumor-to-liver: PC-3 PIP tumor; for AUC PC-3 PIP tumor / AUC blood / AUC kidneys / AUC liver: non-decay-corrected biodistribution data up to 192 h p.i.; for Ratio of AUCs AUCTu-to-AUCBl: tumor to blood; for Ratio of AUCs AUC-Tu-to-AUC-Ki: tumor to kidneys; for Ratio of AUCs AUCTu-to-AUCLi: tumor to liver
[3] = test system: PSMA-positive PC-3 PIP cells; assay: Cell uptake and internalization in PSMA-positive PC-3 PIP cells; format: cell-based
[4] = test system: human plasma proteins; assay: Ultrafiltration assay, binding to human plasma proteins; conditions: human plasma, ultrafiltration
Procedure: Therefore, the compounds were labeled with ^177Lu at a specific activity of 50 MBq/nmol and incubated in human plasma samples or PBS at room temperature. The free and plasma-bound fractions were separated using a centrifree ultrafiltration device (4104 centrifugal filter units [Millipore]; 30000 Da nominal molecular weight limit, methylcellulose micropartition membranes). The incubated solution was loaded to the ultrafiltration device and centrifuged at 2500 rpm for 40 min at 20° C. Samples from the filtrate were taken an analyzed for radioactivity in a gamma-counter. The amount of plasma-bound compound was calculated as the fraction of radioactivity measured in the filtrate relative to the corresponding loading solution (set to 100%).
Determination of Albumin-binding Properties. The binding of the radioligands to human plasma proteins was determined by an ultrafiltration assay. […] Three independent experiments were performed in duplicates with both radioligands and the data was fitted to a semi-logarithmic plot (non-linear regression, one-site, specific binding) to obtain the half maximum binding (B50) in GraphPad Prism software (version 7).
The ^177Lu-labeled PSMA ligands (50 MBq/nmol) were diluted in mouse plasma (Rockland, USA) and human plasma (Stiftung Blutspende SRK Aargau-Solothurn, Switzerland), respectively, and incubated for 15 min at room temperature. In addition, the radioligands were diluted in PBS (buffer solution without proteins) as a control experiment. Aliquots of the solutions were loaded onto an ultrafiltration device and centrifuged. The filtered activity was measured with a γ-counter and used for calculating the plasma protein-bound activity (retained on the filter membrane) as the percentage of total added activity. […] Statistical analysis (one-way ANOVA with Bonferroni's multiple comparison post-test) was performed using GraphPad Prism software, version 7. A p-value of <0.05 was considered statistically significant.

[5] = test system: prostate adenocarcinoma with metastases; assay: Individual curative trial, SPECT-CT, Lutetium-177 labeled compound (Case 1); format: in vivo, human; conditions: patient, radiolabeled with Lutetium-177
Procedure: The compound PSMA-ALB-06, radiolabeled with therapeutic radionuclide Lutetium-177 was used in the scope of an individual curative trial in a patient with mildly differentiated prostate adenocarcinoma with extensive bilobar liver metastases, as well as disseminated osteoblastic metastases (in the pelvic region), and polytopic voluminous lymph node metastases. The evaluation of the biodistribution and in vivo behavior of the radiolabeled compound PSMA-ALB-06 was performed by means of SPECT-CT measurements.
The SPECT-CT visualization was performed at different time points up to 46 hours post injection (p.i.). […] The blood clearance is completed within first hours, whereas the unspecific uptake in healthy organs (especially liver, salivary and kidney) remains moderate over the time.

[6] = test system: metastatic castration-resistant prostate cancer; assay: Individual curative trial, PET-CT, Gallium-68 labeled compound (Case 2); format: in vivo, human; conditions: patient; radiolabeled with Gallium-68
Source text: The compound PSMA-ALB-06, radiolabeled with a positron emitting radionuclide Gallium-68 was used in an individual curative trial in a patient with metastatic castration-resistant prostate cancer as a diagnostic agents for PET-CT. […] The high contrast of the images increases over the time after injection confirming the prolonged blood clearance and high specific uptake in the tumors.

## O=C(O)CCC(NC(=O)NC(CCCCNC(=O)C(Cc1ccc2ccccc2c1)NC(=O)C1CCC(CNC(=O)C(CCCCNC(=O)CN2CCN(CC(=O)O)CCN(CC(=O)O)CCN(CC(=O)O)CC2)NC(=O)CC(NC(=O)CC(NC(=O)CCCc2ccc(I)cc2)C(=O)O)C(=O)O)CC1)C(=O)O)C(=O)O (centres unmarked) [^177Lu-PSMA-ALB-05, metal not drawn]
[1]
  plasma protein-bound fraction: 77±2.1%
[2]; 1 h p.i.
  Tumor-to-blood: 2.31 ± 0.58
  Tumor-to-kidney: 0.79 ± 0.02
  Tumor-to-liver: 8.65 ± 2.21
[2]; 4 h p.i.
  Blood: 10.2 ± 1.98 % IA/g
  Bone: 1.67 ± 0.27 % IA/g
  Heart: 3.82 ± 0.63 % IA/g
  Intestines: 1.33 ± 0.25 % IA/g
  Kidneys: 52.8 ± 7.17 % IA/g
  Liver: 2.96 ± 0.50 % IA/g
  Lung: 7.07 ± 1.44 % IA/g
  Muscle: 1.30 ± 0.23 % IA/g
  PC-3 PIP Tumor: 75.3 ± 15.3 % IA/g
  PC-3 flu Tumor: 2.10 ± 0.20 % IA/g
  Salivary glands: 2.75 ± 0.72 % IA/g
  Spleen: 3.29 ± 0.74 % IA/g
  Stomach: 1.15 ± 0.17 % IA/g
  Tumor-to-blood: 7.43 ± 1.43
  Tumor-to-kidney: 1.42 ± 0.19
  Tumor-to-liver: 25.6 ± 4.58
[2]; 24 h p.i.
  Blood: 1.67 ± 0.29 % IA/g
  Bone: 0.31 ± 0.08 % IA/g
  Heart: 0.65 ± 0.11 % IA/g
  Intestines: 0.28 ± 0.05 % IA/g
  Kidneys: 23.9 ± 4.02 % IA/g
  Liver: 0.82 ± 0.35 % IA/g
  Lung: 1.80 ± 0.78 % IA/g
  Muscle: 0.19 ± 0.06 % IA/g
  PC-3 PIP Tumor: 79.4 ± 11.1 % IA/g
  PC-3 flu Tumor: 0.59 ± 0.10 % IA/g
  Salivary glands: 0.49 ± 0.10 % IA/g
  Spleen: 1.13 ± 0.23 % IA/g
  Stomach: 0.28 ± 0.06 % IA/g
  Tumor-to-blood: 48.2 ± 7.04 and 48 ± 6.4
  Tumor-to-kidney: 3.38 ± 0.58 and 3.4 ± 0.5
  Tumor-to-liver: 106 ± 28.6 and 106 ± 26
[2]; 48 h p.i.
  Blood: 1.66 ± 0.37 % IA/g
  Bone: 0.28 ± 0.05 % IA/g
  Heart: 0.54 ± 0.15 % IA/g
  Intestines: 0.28 ± 0.10 % IA/g
  Kidneys: 12.8 ± 2.62 % IA/g
  Liver: 0.56 ± 0.16 % IA/g
  Lung: 1.48 ± 0.62 % IA/g
  Muscle: 0.20 ± 0.08 % IA/g
  PC-3 PIP Tumor: 60.3 ± 10.7 % IA/g
  PC-3 flu Tumor: 0.57 ± 0.09 % IA/g
  Salivary glands: 0.45 ± 0.10 % IA/g
  Spleen: 0.71 ± 0.23 % IA/g
  Stomach: 0.29 ± 0.08 % IA/g
  Tumor-to-blood: 36.7 ± 1.81 and 38 ± 2.5
  Tumor-to-kidney: 4.72 ± 0.18 and 5.0 ± 0.7
  Tumor-to-liver: 110 ± 12.2 and 100 ± 32
[2]; 96 h p.i.
  Blood: 1.79 ± 0.57 % IA/g
  Bone: 0.28 ± 0.04 % IA/g
  Heart: 0.70 ± 0.21 % IA/g
  Intestines: 0.30 ± 0.11 % IA/g
  Kidneys: 6.89 ± 0.31 % IA/g
  Liver: 0.74 ± 0.14 % IA/g
  Lung: 1.36 ± 0.29 % IA/g
  Muscle: 0.15 ± 0.06 % IA/g
  PC-3 PIP Tumor: 45.0 ± 7.94 % IA/g
  PC-3 flu Tumor: 0.49 ± 0.11 % IA/g
  Salivary glands: 0.46 ± 0.10 % IA/g
  Spleen: 0.64 ± 0.29 % IA/g
  Stomach: 0.24 ± 0.07 % IA/g
  Tumor-to-blood: 27.1 ± 10.0
  Tumor-to-kidney: 6.51 ± 0.98
  Tumor-to-liver: 62.8 ± 18.8
[2]; 144 h p.i.
  Blood: 1.75 ± 0.35 % IA/g
  Bone: 0.25 ± 0.05 % IA/g
  Heart: 0.65 ± 0.17 % IA/g
  Intestines: 0.27 ± 0.05 % IA/g
  Kidneys: 4.28 ± 0.26 % IA/g
  Liver: 0.72 ± 0.13 % IA/g
  Lung: 1.25 ± 0.18 % IA/g
  Muscle: 0.17 ± 0.04 % IA/g
  PC-3 PIP Tumor: 33.9 ± 0.80 % IA/g
  PC-3 flu Tumor: 0.52 ± 0.13 % IA/g
  Salivary glands: 0.46 ± 0.09 % IA/g
  Spleen: 0.56 ± 0.08 % IA/g
  Stomach: 0.23 ± 0.04 % IA/g
  Tumor-to-blood: 19.9 ± 3.88
  Tumor-to-kidney: 7.93 ± 0.30
  Tumor-to-liver: 47.9 ± 8.28
[2]; 192 h p.i.
  Blood: 1.48 ± 0.13 % IA/g
  Bone: 0.26 ± 0.04 % IA/g
  Heart: 0.59 ± 0.05 % IA/g
  Intestines: 0.24 ± 0.04 % IA/g
  Kidneys: 2.70 ± 0.36 % IA/g
  Liver: 0.84 ± 0.06 % IA/g
  Lung: 1.22 ± 0.26 % IA/g
  Muscle: 0.14 ± 0.01 % IA/g
  PC-3 PIP Tumor: 27.9 ± 3.24 % IA/g
  PC-3 flu Tumor: 0.45 ± 0.06 % IA/g
  Salivary glands: 0.37 ± 0.04 % IA/g
  Spleen: 0.55 ± 0.10 % IA/g
  Stomach: 0.16 ± 0.04 % IA/g
  Tumor-to-blood: 19.0 ± 2.97
  Tumor-to-kidney: 10.4 ± 0.25
  Tumor-to-liver: 33.4 ± 1.64
[2]
  AUC PC-3 PIP tumor: 6741 ± 421 % IA/g · h
  AUC blood: 387 ± 32 % IA/g · h
  AUC kidneys: 1837 ± 112 % IA/g · h
  AUC liver: 131 ± 11 % IA/g · h
  Ratio of AUCs AUCTu-to-AUCBl: 17
  Ratio of AUCs AUC-Tu-to-AUC-Ki: 3.7
  Ratio of AUCs AUCTu-to-AUCLi: 52
[3]; 2 h
  cell uptake: 52-57%
  internalized fraction: 18-24%
[3]; 4 h
  cell uptake: 60-63%
  internalized fraction: 20-26%
[4]
  plasma protein-bound fraction: 95±0.6%

## Cc1ccc(CCCC(=O)NCCCCC(NC(=O)CN2CCN(CC(=O)O)CCN(CC(=O)O)CCN(CC(=O)O)CC2)C(=O)NCC2CCC(C(=O)NC(Cc3ccc4ccccc4c3)C(=O)NCCCCC(NC(=O)NC(CCC(=O)O)C(=O)O)C(=O)O)CC2)cc1 (centres unmarked) [PSMA-ALB-06]
[5]
  uptake in malignant tissues (SPECT-CT): substantial specific uptake of the radiolabeled compound in malignant tissues
[5]; up to 46 hours p.i.
  blood circulation and bioavailability: prolonged blood circulation and improved bioavailability
[6]
  visualization of malignant tissues (PET): Malignant tissues could be visualized by means of PET with high specificity

## O=C(O)CCC(NC(=O)NC(CCCCNC(=O)C(Cc1ccc2ccccc2c1)NC(=O)C1CCC(CNC(=O)C(CCCCNC(=O)CN2CCN(CC(=O)O)CCN(CC(=O)O)CCN(CC(=O)O)CC2)NC(=O)CC(NC(=O)CC(NC(=O)CC(NC(=O)CCCc2ccc(I)cc2)C(=O)O)C(=O)O)C(=O)O)CC1)C(=O)O)C(=O)O (centres unmarked) [^177Lu-PSMA-ALB-07, metal not drawn]
[1]
  plasma protein-bound fraction: 64±2.1%
[2]; 4 h p.i.
  Blood: 6.67 ± 2.04 % IA/g
  Bone: 1.30 ± 0.27 % IA/g
  Heart: 2.43 ± 0.78 % IA/g
  Intestines: 1.27 ± 0.45 % IA/g
  Kidneys: 67.0 ± 9.50 % IA/g
  Liver: 1.94 ± 1.02 % IA/g
  Lung: 4.67 ± 0.92 % IA/g
  Muscle: 0.78 ± 0.22 % IA/g
  PC-3 PIP Tumor: 63.5 ± 27.4 % IA/g
  PC-3 flu Tumor: 1.80 ± 0.27 % IA/g
  Salivary glands: 2.09 ± 0.50 % IA/g
  Spleen: 3.41 ± 1.46 % IA/g
  Stomach: 1.09 ± 0.30 % IA/g
  Tumor-to-blood: 9327 ± 1.75
  Tumor-to-kidney: 0.88 ± 0.28
  Tumor-to-liver: 33.6 ± 6.56
[2]; 24 h p.i.
  Blood: 0.79 ± 0.08 % IA/g
  Bone: 0.31 ± 0.10 % IA/g
  Heart: 0.40 ± 0.00 % IA/g
  Intestines: 0.20 ± 0.03 % IA/g
  Kidneys: 51.9 ± 6.34 % IA/g
  Liver: 0.52 ± 0.04 % IA/g
  Lung: 0.73 ± 0.06 % IA/g
  Muscle: 0.13 ± 0.01 % IA/g
  PC-3 PIP Tumor: 84.6 ± 14.2 % IA/g
  PC-3 flu Tumor: 0.80 ± 0.17 % IA/g
  Salivary glands: 0.43 ± 0.04 % IA/g
  Spleen: 1.14 ± 0.04 % IA/g
  Stomach: 0.18 ± 0.06 % IA/g
  Tumor-to-blood: 107 ± 12.2 and 107 ± 10
  Tumor-to-kidney: 1.64 ± 0.29 and 1.6 ± 0.2
  Tumor-to-liver: 162 ± 17.3 and 162 ± 14
[2]; 48 h p.i.
  Tumor-to-blood: 154 ± 7
  Tumor-to-kidney: 2.3 ± 0.1
  Tumor-to-liver: 131 ± 13
[2]; 72 h p.i.
  Blood: 0.40 ± 0.06 % IA/g
  Bone: 0.31 ± 0.06 % IA/g
  Heart: 0.21 ± 0.01 % IA/g
  Intestines: 0.10 ± 0.01 % IA/g
  Kidneys: 26.0 ± 1.58 % IA/g
  Liver: 0.44 ± 0.08 % IA/g
  Lung: 0.43 ± 0.02 % IA/g
  Muscle: 0.08 ± 0.01 % IA/g
  PC-3 PIP Tumor: 62.6 ± 6.35 % IA/g
  PC-3 flu Tumor: 0.43 ± 0.04 % IA/g
  Salivary glands: 0.21 ± 0.01 % IA/g
  Spleen: 0.49 ± 0.03 % IA/g
  Stomach: 0.10 ± 0.01 % IA/g
  Tumor-to-blood: 160 ± 37.0
  Tumor-to-kidney: 2.41 ± 0.18
  Tumor-to-liver: 147 ± 38.4
[2]
  AUC PC-3 PIP tumor: 7007 ± 459 % IA/g · h
  AUC blood: 180 ± 7.2 % IA/g · h
  AUC kidneys: 3395 ± 201 % IA/g · h
  AUC liver: 72 ± 3.6 % IA/g · h
  Ratio of AUCs AUCTu-to-AUCBl: 39
  Ratio of AUCs AUC-Tu-to-AUC-Ki: 2.1
  Ratio of AUCs AUCTu-to-AUCLi: 97
[3]; 2 h
  cell uptake: 52-57%
  internalized fraction: 18-24%
[3]; 4 h
  cell uptake: 60-63%
  internalized fraction: 20-26%
[4]
  plasma protein-bound fraction: 95±0.1%
